Laboratory results: patent US12576015B2, “Antimicrobial mixture containing 4-(3-ethoxy-4-hydroxyphenyl)butan-2-one and an alcohol compound, and cosmetic composition containing same” (L'OREAL, priority 2018, dated 2026)

Tested on: Aspergillus niger ATCC 6275
Experiment: Microplate growth inhibition / MIC and FIC index (synergy) test, optical density at 620 nm
Format: cell-based
Conditions: for microbial growth percentage: 0 A
Description: 1] with: • MIC of A with B: minimum concentration of product A in the combination A+B which makes it possible to obtain an inhibitory effect; • MIC of B with A: minimum concentration of product B in the combination A+B which makes it possible to obtain an inhibitory effect; • MIC of A: minimum inhibitory concentration of product A alone; • MIC of B: minimum inhibitory concentration of product B alone.
When the FIC index value is less than or equal to 1, it is considered that the combination of test compounds has a synergistic effect.
The microbial strain Aspergillus niger ATCC 6275, and a double-concentration Sabouraud broth liquid culture medium supplemented with polyoxyethylenated (20 EO) sorbitan monopalmitate (Tween 40 from Croda) and Phytagel© BioReagent were used (i.e. a mixture of 5 g of Phytagel+0.6 g of Tween 40+60 g of Sabouraud broth).
A 96-well microplate at an incubation temperature of 32.5° C. is used.
The incubation time of the microplate is: • from 24 to 30 h under aerobic conditions for microbial Aspergillus niger ATCC 6275; • from 18 to 24 h under aerobic conditions for Candida albicans ATCC 10231, Pseudomonas aeruginosa ATCC 9027 and Staphylococcus aureus ATCC 6538; Tests
A 10% (weight/volume) stock solution was prepared by mixing 1 g of compound in 9 ml of aqueous 1%0 agar solution. Successive dilutions were made with the 1%0 agar solution.
50 μl of each of the daughter solutions obtained containing compound A or B are added to the microplate wells. 100 μl of Sabouraud liquid nutrient broth inoculated at double concentration with the Aspergillus niger strain and 50 μl of aqueous 1%0 agar solution are also added thereto.
50 μl of each of the daughter solutions obtained containing compound A and 50 μl of each of the daughter solutions obtained containing compound B are added to the microplate wells. 100 μl of Sabouraud liquid nutrient broth inoculated at double concentration with the strain Aspergillus niger are also added thereto.
A positive microbial growth control was also prepared. The positive microbial growth control corresponds to the mixture of 100 μl of aqueous 1%0 agar solution with 100 μl of Sabouraud liquid nutrient broth inoculated at double concentration with the strain Aspergillus niger in the absence of compounds A and B.
An absorbance control was performed in parallel on compounds A and B alone. This control corresponds to 100 μl of double concentration sterile Sabouraud liquid nutrient broth+100 μl of double concentration compound A or B.
In the three cases (absorbance control, growth control and test), the final volume present in each of the microplate wells is 200 μl.
In the two cases (test and control), the inoculum represents the concentration of the Aspergillus niger strain present in the final volume of the wells (200 μl) and is between 2 and 6×10^5 cfu/ml of Aspergillus niger.

% MIC of B alone (first concentration giving growth <= 25%): 0.5%
SMILES: CC(=O)c1ccc(O)cc1 [B, 4-hydroxyacetophenone]
microbial growth percentage (0.0625 weight % B): 86%
microbial growth percentage (0.125 weight % B): 72%
microbial growth percentage (0.25 weight % B): 79%
microbial growth percentage (0.5 weight % B): 6%
